Experimental data: US11260056B2, “Diaminopyrimidine P2X3 and P2X2/3 receptor modulators for use in the treatment of cough” (Afferent Pharmaceuticals, Inc., priority 2015, dated 2022)

How the values were obtained:
Type in all cases: in vivo, human
chronic cough patients = assay: Phase 2b dose-escalation crossover study in chronic cough patients
Experimental: Cough frequency was measured objectively utilizing a cough recording device, with periodic measurements following Compound 16 treatment compared to a baseline recording.
The 29-patient randomized, double-blind, placebo controlled, Phase 2b crossover study was conducted at 10 clinical sites in the U.S. Patients were randomized to either Compound 16 or placebo arms. Those in the treatment group received Compound 16 50 mg, followed by a titration up to 100 mg, 150 mg and 200 mg, with each dose given twice daily for four days. Treatment period one was followed by a 3-5 day washout period. Patients were then crossed over to the alternate arm of the study and treated with either Compound 16 or placebo for 16 more days.

[1] = Phase 1/Phase 2 clinical studies: safety, tolerability and pharmacokinetics after oral administration
Experimental: Compound 16 has progressed to completion of 6 Phase 1 studies and 5 Phase 2 studies, with several studies in progress or soon to commence, and over 400 subjects dosed at least once with Compound 16. […] Studies in normal healthy volunteers have explored safety, tolerability and pharmacokinetics of Compound 16 following oral administration of doses from 10 mg to 1800 mg for up to 3 weeks. […] Plasma half-life falls in the range of 7-9 h, with steady state for BID dosing achieved after 3 doses.

[2] = test system: treatment-resistant chronic cough patients; assay: Double-blind randomized placebo-controlled crossover trial in idiopathic/treatment-resistant chronic cough; details: 600 mg bd
Experimental: Thus, the inventors explored the role of P2X3 receptors in the sensitization of vagal pathways mediating the cough reflex leading to chronic cough (CC). A study was performed to investigate the efficacy of oral administration of Compound 16 in reducing daytime cough in idiopathic/treatment-resistant chronic cough.
In this study, a double-blind randomized placebo-controlled crossover trial, 24 subjects (19 women, mean age 55 yrs) were randomized into a double blind, placebo-controlled, 2-period, crossover study, of Compound 16, 600 mg bd. Cough was assessed using an ambulatory sound monitoring system at baseline and after 2 weeks of treatment; primary endpoint, daytime objective cough frequency (coughs/hr) (VitaloJAK™); secondary endpoints, cough severity and urge to cough (UTC) visual analogue scales (VAS), global ratings of change and cough quality of life questionnaire (CQLQ).

COc1cc(C(C)C)c(Oc2cnc(N)nc2N)cc1S(N)(=O)=O [Compound 16, 5-(2,4-Diamino-pyrimidin-5-yloxy)-4-isopropyl-2-methoxy-benzenesulfonamide]
incidence of decreased taste acuity (chronic cough patients; 50 mg dose versus 600 mg twice daily in the first study): much less at the 50 mg dose
tolerability (chronic cough patients; 50-200 mg twice daily): generally well tolerated
patients who discontinued treatment due to the taste effect (chronic cough patients; at any dose, 29 patients): Only one patient discontinued treatment
steady state for BID dosing achieved after ([1]; human, oral BID dosing): 3 doses
oral bioavailability ([1]; human, based on % dose recovered in urine): appears to be high
Clinical safety ([1]; over 400 subjects dosed at least once, 10 mg to 1800 mg): excellent
adverse events (AEs) ([1]; patients and healthy volunteers, dose-dependent, notable at higher dose levels): limited to oropharyngeal findings (hypogeusia)
half-life ([1]; plasma, human, oral, immediate release formulation): 7 to 9 h
CQLQ (cough quality of life questionnaire), mean difference vs. placebo ([2]; 2 weeks, (−2 to −17), p=0.018): −9
UTC (urge to cough) VAS, mean difference vs. placebo ([2]; 2 weeks, (−2 to −41), p=0.035): −21 mm
cough severity VAS, mean difference vs. placebo ([2]; 2 weeks, (−10 to −42), p=0.003): −26 mm
daytime coughs/hr, mean difference vs. placebo ([2]; after 2 weeks of treatment, 95% CI −50 to −88, p<0.001): −75%
patients who rated an improved cough ([2]; compared to 2/22 treated with placebo): 13/24
reduction in objective daytime cough counts ([2]; patients with refractory chronic cough): 75%
